Values joined by “and” are separate entries in the source; they are usually repeats but may differ in a detail not shown here. Equal entries are not always repeated.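 Each compound was tested at five concentrations against cells in 96-well plates for 48 hours. GI50 = concentration required for 50% inhibition of growth. TGI: total growth inhibition.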
Legend:
Assay in all cases: NCI tumour cell line growth inhibition, 48 h
[1] = test system: M14 melanoma
[2] = test system: SK-OV-3 ovarian
[3] = test system: RXF 393 renal
[4] = test system: SW-620 colon
[5] = test system: RPMI-8226 leukemia
[6] = test system: HS 578T breast
[7] = test system: SN12C renal
[8] = test system: NCI-H522 lung
[9] = test system: NCI-H23 lung
[10] = test system: SF-268 CNS
[11] = test system: SK-MEL-5 melanoma
[12] = test system: SNB-75 CNS
[13] = test system: T-47D breast
[14] = test system: K-562 leukemia
[15] = test system: NCI-H460 lung
[16] = test system: EKVX NSCLC
[17] = test system: SK-MEL-2 melanoma
[18] = test system: HCC-2998 colon
[19] = test system: MCF7 breast
[20] = test system: HCT-116 colon
[21] = test system: HL-60(TB) leukemia
[22] = test system: MDA-MB-435
[23] = test system: UACC-62 melanoma
[24] = test system: MDA-MB-231 breast
[25] = test system: CCRF-CEM leukemia
[26] = test system: HT29 colon
[27] = test system: SK-MEL-28 melanoma
[28] = test system: MALME-3M melanoma
[29] = test system: IGROV1 ovarian
[30] = test system: UACC-257 melanoma
[31] = test system: LOX IMVI melanoma
[32] = test system: COLO 205 colon
[33] = test system: NCI-H226 lung
[34] = test system: SNB-19 CNS
[35] = test system: SR leukemia
[36] = test system: MOLT-4 leukemia
[37] = test system: SF-295 CNS
[38] = test system: A498 renal
[39] = test system: TK-10 renal
[40] = test system: HOP-92 NSCLC
[41] = test system: HOP-62 NSCLC
[42] = test system: SF-539 CNS
[43] = test system: ACHN renal
[44] = test system: UO-31 renal
[45] = test system: CAKI-1 renal
[46] = test system: A549 NSCLC
[47] = test system: OVCAR-4 ovarian
[48] = test system: NCI/ADR-RES ovarian
[49] = test system: OVCAR-8 ovarian
[50] = test system: OVCAR-3 ovarian
[51] = test system: DU-145 prostate
[52] = test system: U251 CNS
[53] = test system: BT-549 breast
[54] = test system: OVCAR-5 ovarian
[55] = test system: 786-0 renal
[56] = test system: KM12 colon
[57] = test system: HCT-15 colon
[58] = test system: PC-3 prostate

For `Nc1ncnc2c1c(-c1cccc(OCc3ccccc3)c1)cn2C1CC(CN2CCC2)C1` (stereo unspecified), the GI50 [1] was 1.59 µM and 1.65 µM, the TGI [1] was 3.28 µM and 3.55 µM and the GI50 [2] was 3.99 µM. The TGI [2] was 11.3 µM and > 10 µM, the GI50 [3] was 1.71 µM and 2 µM and the TGI [3] was 4.27 µM and 7.26 µM. The GI50 [4] was 1.29 µM and 1.56 µM, the TGI [4] was 6.47 µM and > 10 µM and the GI50 [5] was 1.9 µM and 2.18 µM. The TGI [5] was 5.41 µM and 5.31 µM, the GI50 [6] was 2.97 µM and 1.57 µM and the TGI [6] was 24.8 µM and 5.8 µM. For the same compound, the GI50 [7] was 4.59 µM and 5.75 µM, the TGI [7] was 18 µM and > 10 µM and the GI50 [8] was 2.18 µM and 7.48 µM. For the same compound, the TGI [8] was 5.92 µM and > 10 µM, the GI50 [9] was 4.62 µM and 7.36 µM and the TGI [9] was 21.1 µM and > 10 µM. For the same compound, the GI50 [10] was 2.24 µM and 3.68 µM, the TGI [10] was 6.54 µM and > 10 µM and the GI50 [11] was 1.31 µM and 1.42 µM. For the same compound, the TGI [11] was 2.67 µM and 2.8 µM, the GI50 [12] was 1.7 µM and 2.29 µM and the TGI [12] was 4.86 µM and 8.46 µM. For the same compound, the GI50 [13] was 2.84 µM and 2.79 µM, the TGI [13] was 12.1 µM and > 10 µM and the GI50 [14] was 1.71 µM and 2.08 µM. The TGI [14] was 4.43 µM and 6.32 µM, the GI50 [15] was 2.41 µM and 2.87 µM and the TGI [15] was 15.4 µM and > 10 µM. The GI50 [16] was 7.88 µM, the TGI [16] was > 10 µM and the GI50 [17] was 1.58 µM and 2.21 µM. For the same compound, the TGI [17] was 3.36 µM and 6.1 µM, the GI50 [18] was 2.26 µM and 5.4 µM and the TGI [18] was 10.6 µM and > 10 µM. The GI50 [19] was 0.092 µM and 0.369 µM, the TGI [19] was 3.74 µM and 5.55 µM and the GI50 [20] was 1.85 µM and 2.58 µM. The TGI [20] was 11.5 µM and > 10 µM, the GI50 [21] was 0.112 µM and 0.0969 µM and the TGI [21] was 2.08 µM and 2.04 µM. The GI50 [22] was 1.21 µM and 1.49 µM, the TGI [22] was 3.12 µM and 6.89 µM and the GI50 [23] was 1.74 µM and 1.5 µM. The TGI [23] was 3.58 µM and 3.33 µM, the GI50 [24] was 2.12 µM and 3.82 µM and the TGI [24] was 6.14 µM and > 10 µM. For the same compound, the GI50 [25] was 2.58 µM and 2.97 µM, the TGI [25] was 7.99 µM and > 10 µM and the GI50 [26] was 0.0575 µM and 0.173 µM. The TGI [26] was 1.84 µM and 2.05 µM, the GI50 [27] was 1.33 µM and 1.63 µM and the TGI [27] was 2.78 µM and 3.52 µM. The GI50 [28] was 0.433 µM and 1.33 µM, the TGI [28] was 1.96 µM and 3.04 µM and the GI50 [29] was 3.32 µM and 4.84 µM. The TGI [29] was 12.2 µM and > 10 µM, the GI50 [30] was 0.559 µM and 1.13 µM and the TGI [30] was 2.1 µM and 2.41 µM. The GI50 [31] was 1.51 µM and 1.41 µM, the TGI [31] was 3.02 µM and 3 µM and the GI50 [32] was 0.262 µM and 0.245 µM. The TGI [32] was 1.55 µM and 1.29 µM, the GI50 [33] was 2.03 µM and 2.71 µM and the TGI [33] was 16 µM and > 10 µM. For the same compound, the GI50 [34] was 6.37 µM and 7.05 µM, the TGI [34] was 20.5 µM and > 10 µM and the GI50 [35] was 2.22 µM and 1.69 µM. For the same compound, the TGI [35] was 6.08 µM and 4.18 µM, the GI50 [36] was 2.82 µM and 2.56 µM and the TGI [36] was 8.59 µM and > 10 µM. The GI50 [37] was 1.89 µM and 2.36 µM, the TGI [37] was 3.93 µM and 5.63 µM and the GI50 [38] was 1.74 µM and 1.24 µM. The TGI [38] was 5.59 µM and 6.85 µM, the GI50 [39] was 2.02 µM and 2.85 µM and the TGI [39] was 7.74 µM and > 10 µM. For the same compound, the GI50 [40] was 0.0457 µM and 0.266 µM, the TGI [40] was 0.837 µM and 3.82 µM and the GI50 [41] was 1.88 µM and 3.79 µM. The TGI [41] was 8.33 µM and > 10 µM, the GI50 [42] was 1.65 µM and 1.95 µM and the TGI [42] was 3.18 µM and 5.16 µM. For the same compound, the GI50 [43] was 3.87 µM and 7.43 µM, the TGI [43] was 15.3 µM and > 10 µM and the GI50 [44] was 1.31 µM and 1.75 µM. The TGI [44] was 4.34 µM and 9.79 µM, the GI50 [45] was 2.56 µM and 2.44 µM and the TGI [45] was 11.4 µM and > 10 µM. For the same compound, the GI50 [46] was 1.01 µM and 2.91 µM, the TGI [46] was 7.55 µM and > 10 µM and the GI50 [47] was 3.49 µM. The TGI [47] was 15.3 µM and > 10 µM, the GI50 [48] was 6.47 µM and 8.96 µM and the TGI [48] was 22.6 µM and > 10 µM. For the same compound, the GI50 [49] was 5.92 µM and 8.46 µM, the TGI [49] was 20 µM and > 10 µM and the GI50 [50] was 6.26 µM and 7.96 µM. The TGI [50] was 19.3 µM and > 10 µM, the GI50 [51] was 4.61 µM and 7.63 µM and the TGI [51] was 17.7 µM and > 10 µM. The GI50 [52] was 1.82 µM and 3 µM, the TGI [52] was 3.94 µM and > 10 µM and the GI50 [53] was 2.57 µM and 5.84 µM. For the same compound, the TGI [53] was 6.91 µM and > 10 µM, the GI50 [54] was 0.844 µM and 2.48 µM and the TGI [54] was 14.9 µM and > 10 µM. The GI50 [55] was 1.92 µM and 2.14 µM, the TGI [55] was 3.98 µM and 4.83 µM and the GI50 [56] was 2.72 µM and 3.07 µM. For the same compound, the TGI [56] was 8.97 µM and > 10 µM, the GI50 [57] was 1.93 µM and 2.39 µM and the TGI [57] was 12.6 µM and > 10 µM. The GI50 [58] was 2.94 µM and 5.42 µM and the TGI [58] was 13.9 µM and > 10 µM.

Reference: PubChem BioAssay (NCI)
